Among the data in patent US20260365682A1, “MODULATORS OF TNF-ALPHA ACTIVITY” (Forward Therapeutics, Inc., priority 2022, published 2026) are IC50 values, retold here.

Read-outs that look alike come from different tables or passages of the source. Where only a bound is given, the exact number is not on record here.

In this assay the target is T1, TNF-α (Homo sapiens, UniProt P01375).
T1 construct: purchased R&D 210-TA-020/CF
Put plainly: TNF-α Induced HEK Blue Cellular Assay (secreted alkaline phosphatase expression, QUANTI-Blue). The format is cell-based. To be noted: HEK Blue TNFα reporter cells, TNF-α 100 μg/ml, 24 hrs at 37° C., inhibition of secreted alkaline phosphatase. Put shortly:
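Compound was serially diluted from […] to 0.5 nM final, then incubated with 10,000 HEK Blue TNFα reporter cells per well and […] TNF-α for 24 h at 37° C. SEAP output was read by QUANTI-Blue absorbance at 620 nm. Inhibition was background-corrected against DMSO controls with and without stimulation, and IC50 was fitted with a 4-parameter logistic equation.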

T1 sequence (P01375 77-233 limits assumed): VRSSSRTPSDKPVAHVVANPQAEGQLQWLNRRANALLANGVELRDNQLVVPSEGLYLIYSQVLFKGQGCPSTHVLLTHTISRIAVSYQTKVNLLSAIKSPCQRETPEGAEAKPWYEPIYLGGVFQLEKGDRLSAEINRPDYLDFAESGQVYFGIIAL

Usually IC50 stands for the midpoint of a concentration-inhibition curve. On to `[2H]C([2H])([2H])N1C(=O)c2cccc(OC(F)F)c2[C@H]2C[C@@H]1c1nc3ccc(C#CC4CC(O)C4)cc3n12` (stereo partly drawn) [Example 110, (7R,14R)-1-(difluoromethoxy)-11-((3-hydroxycyclobutyl)ethynyl)-6-(methyl-d3)-6,7-dihydro-7,14-methanobenzo[f]benzo[4,5]imidazo[1,2-a][1,4]diazocin-5(14H)-one], for which the IC50 (read-out: IC50 value) is < 100 nM.

On to `[2H]C([2H])([2H])N1C(=O)c2cccc(OC(F)F)c2[C@H]2C[C@@H]1c1nc3ccc(C#CCCO)cc3n12` [Example 111, (7R,14R)-1-(difluoromethoxy)-11-(4-hydroxybut-1-yn-1-yl)-6-(methyl-d3)-6,7-dihydro-7,14-methanobenzo[f]benzo[4,5]imidazo[1,2-a][1,4]diazocin-5(14H)-one], for which the IC50 (read-out: IC50 value) is < 100 nM. With `[2H]C([2H])([2H])N1C(=O)c2cccc(OC(F)F)c2[C@H]2C[C@@H]1c1nc3ccc(C#Cc4ccc(P(C)(C)=O)nc4)cc3n12` [Example 112, (7R,14R)-1-(difluoromethoxy)-11-((6-(dimethylphosphoryl)pyridin-3-yl)ethynyl)-6-(methyl-d3)-6,7-dihydro-7,14-methanobenzo[f]benzo[4,5]imidazo[1,2-a][1,4]diazocin-5(14H)-one], the IC50 (read-out: IC50 value) is < 100 nM. In the case of `[2H]C([2H])([2H])N1C(=O)c2cccc(OC(F)F)c2[C@H]2C[C@@H]1c1nc3ccc(C#CC4CC(N)C4)cc3n12` (stereo partly drawn) [Example 113, (7R,14R)-11-((3-aminocyclobutyl)ethynyl)-1-(difluoromethoxy)-6-(methyl-d3)-6,7-dihydro-7,14-methanobenzo[f]benzo[4,5]imidazo[1,2-a][1,4]diazocin-5(14H)-one], the IC50 (read-out: IC50 value) was < 100 nM.

As to `[2H]C([2H])([2H])N1C(=O)c2cccc(OC(F)F)c2[C@H]2C[C@@H]1c1nc3ccc(C#CCCCN4CCOCC4)cc3n12` [Example 114, (7R,14R)-1-(difluoromethoxy)-6-(methyl-d3)-11-(5-morpholinopent-1-yn-1-yl)-6,7-dihydro-7,14-methanobenzo[f]benzo[4,5]imidazo[1,2-a][1,4]diazocin-5(14H)-one], where the note is “read-out: IC50 value”, the IC50 was < 100 nM.

Regarding `[2H]C([2H])([2H])N1C(=O)c2cccc(OC(F)F)c2[C@H]2C[C@@H]1c1nc3ccc(C#CCOC4CCN(C)CC4)cc3n12` [Example 115, (7R,14R)-1-(difluoromethoxy)-6-(methyl-d3)-11-(3-((1-methylpiperidin-4-yl)oxy)prop-1-yn-1-yl)-6,7-dihydro-7,14-methanobenzo[f]benzo[4,5]imidazo[1,2-a][1,4]diazocin-5(14H)-one], the IC50 (read-out: IC50 value) was < 100 nM. Regarding `[2H]C([2H])([2H])N1C(=O)c2cccc(OC(F)F)c2[C@H]2C[C@@H]1c1nc3ccc(C#CCOC4CCN(C(=O)OC(C)(C)C)CC4)cc3n12` [Example 116, tert-butyl 4-((3-((7R,14R)-1-(difluoromethoxy)-6-(methyl-d3)-5-oxo-5,6,7,14-tetrahydro-7,14-methanobenzo[f]benzo[4,5]imidazo[1,2-a][1,4]diazocin-11-yl)prop-2-yn-1-yl)oxy)piperidine-1-carboxylate], the IC50 (read-out: IC50 value) lay within 1000 to 10000 nM. The same measure, in the same setting: the figure for `[2H]C([2H])([2H])N1C(=O)c2cccc(OC(F)F)c2[C@H]2C[C@@H]1c1nc3ccc(C#CCOC4CCNCC4)cc3n12` [Example 117, (7R,14R)-1-(difluoromethoxy)-6-(methyl-d3)-11-(3-(piperidin-4-yloxy)prop-1-yn-1-yl)-6,7-dihydro-7,14-methanobenzo[f]benzo[4,5]imidazo[1,2-a][1,4]diazocin-5(14H)-one] is 100 to 1000 nM; for `[2H]C([2H])([2H])N1C(=O)c2cccc(OC(F)F)c2[C@H]2C[C@@H]1c1nc3ccc(C#CC4CN(CC)C4)cc3n12` [Example 118, (7R,14R)-1-(difluoromethoxy)-11-((1-ethylazetidin-3-yl)ethynyl)-6-(methyl-d3)-6,7-dihydro-7,14-methanobenzo[f]benzo[4,5]imidazo[1,2-a][1,4]diazocin-5(14H)-one] it is < 100 nM; for `[2H]C([2H])([2H])N1C(=O)c2cccc(OC(F)F)c2[C@H]2C[C@@H]1c1nc3ccc(C#CC4CN(C(C)C)C4)cc3n12` [Example 119, (7R,14R)-1-(difluoromethoxy)-11-((1-isopropylazetidin-3-yl)ethynyl)-6-(methyl-d3)-6,7-dihydro-7,14-methanobenzo[f]benzo[4,5]imidazo[1,2-a][1,4]diazocin-5(14H)-one] it is < 100 nM. In the case of `[2H]C([2H])([2H])N1C(=O)c2cccc(OC(F)F)c2[C@H]2C[C@@H]1c1nc3ccc(C#CC4CN(C(C)=O)C4)cc3n12` [Example 120, (7R,14R)-11-((1-acetylazetidin-3-yl)ethynyl)-1-(difluoromethoxy)-6-(methyl-d3)-6,7-dihydro-7,14-methanobenzo[f]benzo[4,5]imidazo[1,2-a][1,4]diazocin-5(14H)-one], the half-inhibitory concentration (IC50) (IC50 value) was < 100 nM.

With `[2H]C([2H])([2H])N1C(=O)c2cccc(OC(F)F)c2[C@H]2C[C@@H]1c1nc3ccc(C#CC4CN(S(C)(=O)=O)C4)cc3n12` [Example 121, (7R,14R)-1-(difluoromethoxy)-6-(methyl-d3)-11-((1-(methylsulfonyl)azetidin-3-yl)ethynyl)-6,7-dihydro-7,14-methanobenzo[f]benzo[4,5]imidazo[1,2-a][1,4]diazocin-5(14H)-one], where the note is “read-out: IC50 value”, the IC50 is < 100 nM. Consider `[2H]C([2H])([2H])N1C(=O)c2cccc(OC(F)F)c2[C@H]2C[C@@H]1c1nc3ccc(C#CCCN)cc3n12` [Example 123, (7R,14R)-11-(4-aminobut-1-yn-1-yl)-1-(difluoromethoxy)-6-(methyl-d3)-6,7-dihydro-7,14-methanobenzo[f]benzo[4,5]imidazo[1,2-a][1,4]diazocin-5(14H)-one], for which the IC50 (read-out: IC50 value) is 100 to 1000 nM. For the compound `[2H]C([2H])([2H])N1C(=O)c2cccc(OC(F)F)c2[C@H]2C[C@@H]1c1nc3ccc(C#CC4CN(CC(F)(F)F)C4)cc3n12` [Example 124, (7R,14R)-1-(difluoromethoxy)-6-(methyl-d3)-11-((1-(2,2,2-trifluoroethyl)azetidin-3-yl)ethynyl)-6,7-dihydro-7,14-methanobenzo[f]benzo[4,5]imidazo[1,2-a][1,4]diazocin-5(14H)-one], the IC50 (read-out: IC50 value) is < 100 nM.

On to `[2H]C([2H])([2H])N1C(=O)c2cccc(OC(F)F)c2[C@H]2C[C@@H]1c1nc3ccc(C#CC4CN(C(=O)C(C)(C)C)C4)cc3n12` [Example 125, (7R,14R)-1-(difluoromethoxy)-6-(methyl-d3)-11-((1-pivaloylazetidin-3-yl)ethynyl)-6,7-dihydro-7,14-methanobenzo[f]benzo[4,5]imidazo[1,2-a][1,4]diazocin-5(14H)-one], for which, where the note is “read-out: IC50 value”, the IC50 was < 100 nM. Take `[2H]C([2H])([2H])N1C(=O)c2cccc(OC(F)F)c2[C@H]2C[C@@H]1c1nc3ccc(C#CC4CN(C(=O)C(C)(C)O)C4)cc3n12` [Example 126, (7R,14R)-1-(difluoromethoxy)-11-((1-(2-hydroxy-2-methylpropanoyl)azetidin-3-yl)ethynyl)-6-(methyl-d3)-6,7-dihydro-7,14-methanobenzo[f]benzo[4,5]imidazo[1,2-a][1,4]diazocin-5(14H)-one]: the half-maximal inhibitory concentration (IC50) (read-out: IC50 value) is < 100 nM. With `[2H]C([2H])([2H])N1C(=O)c2cccc(OC(F)F)c2[C@H]2C[C@@H]1c1nc3ccc(C#CC4CN(C(=O)C5CC5)C4)cc3n12` [Example 127, (7R,14R)-11-((1-(cyclopropanecarbonyl)azetidin-3-yl)ethynyl)-1-(difluoromethoxy)-6-(methyl-d3)-6,7-dihydro-7,14-methanobenzo[f]benzo[4,5]imidazo[1,2-a][1,4]diazocin-5(14H)-one], for the setting “read-out: IC50 value”, the IC50 was < 100 nM. For the compound `[2H]C([2H])([2H])N1C(=O)c2cccc(OC(F)F)c2[C@H]2C[C@@H]1c1nc3ccc(C#C[C@@H](C)CO)cc3n12` [Example 128, (7R,14R)-1-(difluoromethoxy)-11-((R)-4-hydroxy-3-methylbut-1-yn-1-yl)-6-(methyl-d3)-6,7-dihydro-7,14-methanobenzo[f]benzo[4,5]imidazo[1,2-a][1,4]diazocin-5(14H)-one], for the setting “read-out: IC50 value”, the IC50 was < 100 nM. As to `[2H]C([2H])([2H])N1C(=O)c2cccc(OC(F)F)c2[C@H]2C[C@@H]1c1nc3ccc(C#C[C@H](C)CO)cc3n12` [Example 129, (7R,14R)-1-(difluoromethoxy)-11-((S)-4-hydroxy-3-methylbut-1-yn-1-yl)-6-(methyl-d3)-6,7-dihydro-7,14-methanobenzo[f]benzo[4,5]imidazo[1,2-a][1,4]diazocin-5(14H)-one], the IC50 (read-out: IC50 value) was < 100 nM.

Regarding `[2H]C([2H])([2H])N1C(=O)c2cccc(OC(F)F)c2[C@H]2C[C@@H]1c1nc3ccc(C#CC4(CO)CC4)cc3n12` [Example 130, (7R,14R)-1-(difluoromethoxy)-11-((1-(hydroxymethyl)cyclopropyl)ethynyl)-6-(methyl-d3)-6,7-dihydro-7,14-methanobenzo[f]benzo[4,5]imidazo[1,2-a][1,4]diazocin-5(14H)-one], for the setting “read-out: IC50 value”, the IC50 is 100 to 1000 nM. Turning to `[2H]C([2H])([2H])N1C(=O)c2cccc(OC(F)F)c2[C@H]2C[C@@H]1c1nc3ccc(C#CCOC(F)F)cc3n12` [Example 131, (7R,14R)-1-(difluoromethoxy)-11-(3-(difluoromethoxy)prop-1-yn-1-yl)-6-(methyl-d3)-6,7-dihydro-7,14-methanobenzo[f]benzo[4,5]imidazo[1,2-a][1,4]diazocin-5(14H)-one], the IC50 (read-out: IC50 value) was < 100 nM. As to `[2H]C([2H])([2H])N1C(=O)c2cccc(OC(F)F)c2[C@H]2C[C@@H]1c1nc3ccc(C#CCCC(F)F)cc3n12` [Example 132, (7R,14R)-1-(difluoromethoxy)-11-(5,5-difluoropent-1-yn-1-yl)-6-(methyl-d3)-6,7-dihydro-7,14-methanobenzo[f]benzo[4,5]imidazo[1,2-a][1,4]diazocin-5(14H)-one], the IC50 (read-out: IC50 value) is < 100 nM.
